Test results reported in PubChem BioAssay (NCI).
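In this assay, cells in 96-well plates receive the compound at five concentrations for 48 hours. Endpoints are linearly interpolated between the surrounding concentrations. GI50 is the concentration that inhibits growth by half. The concentration for full growth arrest is given as TGI.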

Experiments:
Test in all cases: inhibition of tumour cell growth, NCI panel, 48 h
HCT-15 colon = tested on: HCT-15 colon
UO-31 renal = tested on: UO-31 renal
ACHN renal = tested on: ACHN renal
OVCAR-4 ovarian = tested on: OVCAR-4 ovarian
HOP-92 NSCLC = tested on: HOP-92 NSCLC
M14 melanoma = tested on: M14 melanoma
U251 CNS = tested on: U251 CNS
DU-145 prostate = tested on: DU-145 prostate
COLO 205 colon = tested on: COLO 205 colon
OVCAR-5 ovarian = tested on: OVCAR-5 ovarian
K-562 leukemia = tested on: K-562 leukemia
SN12C renal = tested on: SN12C renal
SK-MEL-5 melanoma = tested on: SK-MEL-5 melanoma
OVCAR-3 ovarian = tested on: OVCAR-3 ovarian
UACC-257 melanoma = tested on: UACC-257 melanoma
HS 578T breast = tested on: HS 578T breast
HCC-2998 colon = tested on: HCC-2998 colon
KM12 colon = tested on: KM12 colon
BT-549 breast = tested on: BT-549 breast
SK-OV-3 ovarian = tested on: SK-OV-3 ovarian
UACC-62 melanoma = tested on: UACC-62 melanoma
CAKI-1 renal = tested on: CAKI-1 renal
TK-10 renal = tested on: TK-10 renal
IGROV1 ovarian = tested on: IGROV1 ovarian
SW-620 colon = tested on: SW-620 colon
A549 NSCLC = tested on: A549 NSCLC
EKVX NSCLC = tested on: EKVX NSCLC
LOX IMVI melanoma = tested on: LOX IMVI melanoma
HCT-116 colon = tested on: HCT-116 colon
RPMI-8226 leukemia = tested on: RPMI-8226 leukemia
786-0 renal = tested on: 786-0 renal
MDA-MB-435 = tested on: MDA-MB-435
SNB-19 CNS = tested on: SNB-19 CNS
T-47D breast = tested on: T-47D breast
MDA-MB-231 breast = tested on: MDA-MB-231 breast
NCI/ADR-RES ovarian = tested on: NCI/ADR-RES ovarian
SK-MEL-2 melanoma = tested on: SK-MEL-2 melanoma
NCI-H522 lung = tested on: NCI-H522 lung
PC-3 prostate = tested on: PC-3 prostate
SF-295 CNS = tested on: SF-295 CNS
HOP-62 NSCLC = tested on: HOP-62 NSCLC
SK-MEL-28 melanoma = tested on: SK-MEL-28 melanoma
CCRF-CEM leukemia = tested on: CCRF-CEM leukemia
RXF 393 renal = tested on: RXF 393 renal
SR leukemia = tested on: SR leukemia
NCI-H460 lung = tested on: NCI-H460 lung

Cc1c(-c2ccnc(N)n2)c2c(n1Cc1ccccc1)C(=O)c1ccccc1C2=O
GI50 (HCT-15 colon): 4.8 µM | TGI (HCT-15 colon): > 100 µM | GI50 (UO-31 renal): 3.28 µM | TGI (UO-31 renal): 21.8 µM | GI50 (ACHN renal): 8.34 µM | TGI (ACHN renal): 36.8 µM | GI50 (OVCAR-4 ovarian): 20.7 µM | TGI (OVCAR-4 ovarian): > 100 µM | GI50 (HOP-92 NSCLC): > 100 µM | TGI (HOP-92 NSCLC): > 100 µM | GI50 (M14 melanoma): 16.2 µM | TGI (M14 melanoma): > 100 µM | GI50 (U251 CNS): 3.91 µM | TGI (U251 CNS): 36.2 µM | GI50 (DU-145 prostate): 9.82 µM | TGI (DU-145 prostate): 41.2 µM | GI50 (COLO 205 colon): 15.5 µM | TGI (COLO 205 colon): 43.9 µM | GI50 (OVCAR-5 ovarian): 47.4 µM | TGI (OVCAR-5 ovarian): > 100 µM | GI50 (K-562 leukemia): 2.92 µM | TGI (K-562 leukemia): 44.4 µM | GI50 (SN12C renal): > 100 µM | TGI (SN12C renal): > 100 µM | GI50 (SK-MEL-5 melanoma): 12.8 µM | TGI (SK-MEL-5 melanoma): 27.8 µM | GI50 (OVCAR-3 ovarian): 2.83 µM | TGI (OVCAR-3 ovarian): 21.3 µM | GI50 (UACC-257 melanoma): 23.2 µM | TGI (UACC-257 melanoma): > 100 µM | GI50 (HS 578T breast): 2.62 µM | TGI (HS 578T breast): 8.05 µM | GI50 (HCC-2998 colon): 12.9 µM | TGI (HCC-2998 colon): 35.8 µM | GI50 (KM12 colon): 8.82 µM | TGI (KM12 colon): 30.4 µM | GI50 (BT-549 breast): 2.99 µM | TGI (BT-549 breast): 8.4 µM | GI50 (SK-OV-3 ovarian): 18.2 µM | TGI (SK-OV-3 ovarian): 77.4 µM | GI50 (UACC-62 melanoma): > 100 µM | TGI (UACC-62 melanoma): > 100 µM | GI50 (CAKI-1 renal): 4.66 µM | TGI (CAKI-1 renal): 52.9 µM | GI50 (TK-10 renal): 17.3 µM | TGI (TK-10 renal): 66.8 µM | GI50 (IGROV1 ovarian): 4.84 µM | TGI (IGROV1 ovarian): 54.7 µM | GI50 (SW-620 colon): 6.82 µM | TGI (SW-620 colon): > 100 µM | GI50 (A549 NSCLC): > 100 µM | TGI (A549 NSCLC): > 100 µM | GI50 (EKVX NSCLC): 7.11 µM | TGI (EKVX NSCLC): 41.2 µM | GI50 (LOX IMVI melanoma): 1.98 µM | TGI (LOX IMVI melanoma): 6.65 µM | GI50 (HCT-116 colon): 3.7 µM | TGI (HCT-116 colon): 16.6 µM | GI50 (RPMI-8226 leukemia): > 100 µM | TGI (RPMI-8226 leukemia): > 100 µM | GI50 (786-0 renal): 5.02 µM | TGI (786-0 renal): 71 µM | GI50 (MDA-MB-435): 4.84 µM | TGI (MDA-MB-435): 24.2 µM | GI50 (SNB-19 CNS): 18.1 µM | TGI (SNB-19 CNS): > 100 µM | GI50 (T-47D breast): 47.8 µM | TGI (T-47D breast): > 100 µM | GI50 (MDA-MB-231 breast): 1.73 µM | TGI (MDA-MB-231 breast): 30.2 µM | GI50 (NCI/ADR-RES ovarian): 13.3 µM | TGI (NCI/ADR-RES ovarian): > 100 µM | GI50 (SK-MEL-2 melanoma): 11.3 µM | TGI (SK-MEL-2 melanoma): 47.7 µM | GI50 (NCI-H522 lung): > 100 µM | TGI (NCI-H522 lung): > 100 µM | GI50 (PC-3 prostate): 49.1 µM | TGI (PC-3 prostate): > 100 µM | GI50 (SF-295 CNS): 3.12 µM | TGI (SF-295 CNS): 15 µM | GI50 (HOP-62 NSCLC): 13.9 µM | TGI (HOP-62 NSCLC): 43.6 µM | GI50 (SK-MEL-28 melanoma): 17.3 µM | TGI (SK-MEL-28 melanoma): > 100 µM | GI50 (CCRF-CEM leukemia): > 100 µM | TGI (CCRF-CEM leukemia): > 100 µM | GI50 (RXF 393 renal): 11.3 µM | TGI (RXF 393 renal): 38.2 µM | GI50 (SR leukemia): 1.84 µM | TGI (SR leukemia): 4.52 µM | GI50 (NCI-H460 lung): 6.42 µM | TGI (NCI-H460 lung): 26.5 µM
